“Also recorded” adds a separate entry of the source.

The subject of this test is Male WistarF/Han (WF) rats. Briefly: Response to novelty (Open field test), i.c.v. P32/98. Format: in vivo, rat. The method, then: Animals. Male WistarF/Han (WF) rats (Central Animal Laboratory, Hannover Medical School, Hannover, Germany, weighing 350-390 g, were housed in a sound-proof, temperature controlled (24.0±0.5° C.) room under specific pathogen free conditions with a 12/12 h dark/light cycle (lights on at 07.00 with illumination level of 80 Lux). Food (Altromin lab chow pellets) and tap water were available ad libitum. Under ketamine/xylasine (100/5 mg/kg, i.p.) anesthesia, the rats were fixed in a Kopf stereotaxic frame and implanted with cannulae (Plastic One, Inc., Roanoke, Va., USA) above the lateral ventricle. All research and animal care procedures were approved by the Lower Saxony district government (Hannover, Germany) and followed principles described in the European Community's Council Directive of 24 Nov. 1986 (86/609/EEC).
Surgery and i.c.v. application. For surgery, rats were anesthetized and prepared with i.c.v. cannulaes (coordinates: A: −0.7 mm caudal, L: 1.4 mm lateral to bregma; and V: 3.2 mm ventral to the skull surface; tooth bar +3.0 above ear bars) using standard stereotaxic procedures as described in detail elsewhere (von Hörsten et al., 1998a,b,c). […]
Response to novelty (Open field test). […] Spontaneous activity during a single continuous test session of 15 min was recorded using a video path analyzer system (E61-21 Video Path Analyser system, Coulbourn instruments, PA, U.S.A.). […] Furthermore, the total incidence of fecal boli was counted after each session and the incidence and duration (sec) of grooming behavior was simultaneously recorded from a video monitor by a person blind to the treatment of the animals (von Hörsten et al., 1998c).
Statistical analysis. For statistical analysis, behavioral raw data from every test minute were analyzed by two-way analyses of variance (ANOVA) for repeated measures (factors: treatment and time as a repeated measurement). Data obtained as totals from a session were analyzed by one-way (factor: treatment) ANOVA. […]

With `CC[C@H](C)[C@H](N)C(=O)N1CCSC1` [P32/98], the “activity in the open field (distance traveled)” value (i.c.v. 0.05, 5, 500 nmol, 60 min before test, four consecutive minutes, vs aCSF) is given as “no effect on activity; also recorded: no significant effect”. For the same compound, under “i.c.v. 0.05, 5, 500 nmol, 60 min before test, sum of four consecutive minutes, vs aCSF”, the “time spent close to the wall in the open field” value is “dose-dependent reduction; also recorded: significant effect”. Also, under “i.c.v., open field”, the “dosage already effective on time spent close to the wall” value is listed as 50 pmol.

For the origin of these results see patent US8168199B2, “Dipeptidyl peptidase IV inhibitors for the treatment of schizophrenia and depression” (priority 2000, dated 2012).
